These results are taken from patent US12351561B2, “Crystalline (2S,4R)-5-(5'-chloro-2'-fluoro-[1,1'-biphenyl]-4-yl)-2-(ethoxymethyl)-4-(3-hydroxyisoxazole-5-carboxamido)-2-methylpentanoic acid and uses thereof” (THERAVANCE BIOPHARMA R&D IP, LLC, priority 2016, dated 2025).

The conditions of series [1]: healthy subjects; cited from earlier work.
The target in series [2] is human neprilysin (NEP) (Homo sapiens, UniProt P08473). Description: in vitro human neprilysin inhibitor activity (pKi). In kind it is biochemical. The source says: One measure of the ability of a compound to inhibit NEP activity is the inhibition constant (pKi). The pKi value is the negative logarithm to base 10 of the dissociation constant (Ki), which is typically reported in molar units. The compound of the invention has a pKi at NEP≥9.0.
Chain of human neprilysin (NEP) (P08473 whole entry): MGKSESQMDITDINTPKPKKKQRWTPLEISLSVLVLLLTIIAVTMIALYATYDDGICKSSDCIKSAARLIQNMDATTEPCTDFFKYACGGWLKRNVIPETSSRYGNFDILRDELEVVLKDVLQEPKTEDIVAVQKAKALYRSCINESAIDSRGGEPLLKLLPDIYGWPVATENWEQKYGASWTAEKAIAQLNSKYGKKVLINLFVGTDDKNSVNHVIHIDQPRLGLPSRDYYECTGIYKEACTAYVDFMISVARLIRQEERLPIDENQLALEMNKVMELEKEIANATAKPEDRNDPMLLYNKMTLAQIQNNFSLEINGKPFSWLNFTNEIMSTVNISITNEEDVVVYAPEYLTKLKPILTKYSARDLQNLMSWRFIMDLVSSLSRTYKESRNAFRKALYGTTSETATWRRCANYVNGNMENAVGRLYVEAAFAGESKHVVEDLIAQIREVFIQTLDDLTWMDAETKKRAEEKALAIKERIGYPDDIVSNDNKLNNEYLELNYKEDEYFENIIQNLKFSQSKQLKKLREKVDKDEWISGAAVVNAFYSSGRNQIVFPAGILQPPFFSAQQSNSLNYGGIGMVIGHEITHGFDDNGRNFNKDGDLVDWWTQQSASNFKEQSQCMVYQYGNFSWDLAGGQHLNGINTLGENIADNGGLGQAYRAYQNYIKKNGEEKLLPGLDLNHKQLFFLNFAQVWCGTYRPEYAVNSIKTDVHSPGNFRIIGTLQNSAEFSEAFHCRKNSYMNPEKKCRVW
The in vitro-to-in vivo extrapolation of drug behavior in a subject continues to improve (see, e.g., Chiba et al., AAPS J., 2009 June; 11 (2): 262-276). In the present invention, in vitro human neprilysin inhibitor activity was assessed in order to determine neprilysin inhibitory activity of Compound I and crystalline form I′. A threshold of pKi>9.0 was met. However, additional in vivo experiments were further performed in order to more accurately predict the behavior of Compound I and crystalline form I′ in a subject.

The nature of series [3]: Dynamic moisture sorption (DMS) assessment. Format: physicochemical. As to the method:
In one embodiment, crystalline form I′ is characterized by the DMS isotherm in FIG. 4. […] The total moisture gain observed is less than 0.02% by weight when exposed to 5-90% relative humidity. No significant hysteresis is found between two consecutive sorption-desorption cycles. […] The crystalline form I′ remains non-hygroscopic and therefore may be characterized as anhydrous, non-hygroscopic or both.
DMS measurements were performed using a VTI atmospheric microbalance, SGA-100 system (VTI Corp., Hialeah, FL 33016). A weighed sample was used and the humidity was lowest possible value (close to 0% relative humidity) at the start of the analysis. The DMS analysis consisted of a scan rate of 5% relative humidity/step over the full humidity range of 5-90%. The DMS run was performed isothermally at 25° C.

Series [4] can be described thus: Stability study of crystalline form (25° C./60% RH and accelerated 40° C./75% RH). Format: physicochemical. As to the method:
One challenge in pharmaceutical drug development relates to discovering a stable, crystalline form of a drug having a reasonably high melting point. One challenge of the present invention was that small crystals of the free acid of Compound I were difficult to obtain with the favorable physical properties mentioned above. Once achieved, the small crystals melted around 216° C. and an accelerated stability study of Compound I′ was conducted at the temperatures and % relative humidity (RH) reported below.

The nature of series [5]: Assay 3.2: PK profile, oral bioavailability and renal excretion in human (SAD, 14C i.v. microtracer). In kind it is in vivo. As to conditions: human, SAD clinical trial, confirmed by intravenous microtracer. As to the method: A Phase 1 single-ascending dose (SAD) clinical trial of Compound I′ (Form I), which converts to or dissolves to provide its soluble form Compound I in the body, was conducted in order to assess neprilysin inhibition for the treatment of a range of cardiovascular and renal diseases, including, e.g., chronic kidney disease, diabetic nephropathy, acute and chronic heart failure, heart failure with reduced ejection fraction, heart failure with preserved ejection fraction, post-myocardial infarction asymptomatic left ventricular dysfunction (post-MI asymptomatic LVD), subacute heart failure and resistant and isolated systolic hypertension. Safety and tolerability, pharmacokinetic (support for QD/BID dosing and non-renal excretion), pharmacodynamic (test for target engagement biomarkers cGMP and ANP), food effect, and absolute oral bioavailability and renal elimination using a ^14C intravenous microtracer, inter alia, were tested.
The Phase 1 study was a double-blind, randomized placebo-controlled single ascending dose study in healthy male and female volunteers randomized in a 4:1 ratio. The study enrolled 56 healthy volunteers over multiple weeks for the ascending-dose portion, which included cohorts (n=10/cohort of 8 active and 2 placebo) administered single ascending doses of 50 mg, 100 mg, 200 mg, 400 mg and 600 mg. A sixth cohort (n=6) was administered i.v. microtracer and oral doses of 10 μg and 100 mg, respectively.

The target of series [6] is T1, NEP (Homo sapiens, UniProt P08473).
T1 construct: from tissue; host or cells: healthy human volunteers (in vivo)
T1 sequence (P08473 whole entry): as above
Description: Assay 4.1: NEP activity in human (cGMP), multiple-ascending dose study. Format: in vivo. Conditions: once-daily dose, trough (0 h) up to 24 h. As to the method: The Phase 1 study was a double-blind, randomized placebo-controlled multiple ascending dose study in healthy male and female volunteers randomized in a 4:1 ratio. The study enrolled 50 healthy adult (19-55 years old) and elderly (65-80 years old) volunteers over multiple weeks for the ascending-dose portion, which included cohorts (n=10/cohort of 8 active and 2 placebo) administered (1) ascending doses of 50 mg, 100 mg, and 200 mg, (2) a dose of 10 mg studied in parallel with 200 mg for PK/PK, and (3) a dose of 100 mg for one elderly cohort. […] Additionally, renal elimination of Compound I was neglible after multiple dosing, e.g., <1% was observed on Day 1 and Day 14 for all subjects.
Part of the MAD clinical studies was to determine the mechanism/duration of action of Compound I after dosing in humans.

By Ki is commonly meant a measure of affinity in units of concentration, obtained from inhibition or displacement.

For `CCOC(=O)[C@H](C)C[C@@H](Cc1ccc(-c2ccccc2)cc1)NC(=O)CCC(=O)O` [sacubitril], the renal elimination in series [1] is listed as 60%.
`CCOC[C@](C)(C[C@@H](Cc1ccc(-c2cc(Cl)ccc2F)cc1)NC(=O)c1cc(O)no1)C(=O)O` [Compound I′, (2S,4R)-5-(5′-chloro-2′-fluoro-[1,1′-biphenyl]-4-yl)-2-(ethoxymethyl)-4-(3-hydroxyisoxazole-5-carboxamido)-2-methylpentanoic acid]: the inhibition constant (Ki) in series [2] was at most 1 nM. Further, in series [3] (5-90% relative humidity, two sorption-desorption cycles), the “hygroscopicity (DMS isotherm)” value is given as “non-hygroscopic solid”. Moreover, the total moisture gain entry in series [3] (exposed to 5-90% relative humidity, 25° C.) is “less than 0.02 % by weight”. Further, the “time for which the crystalline form remains stable” value was “at least 18 months” in series [4] (25° C., 60% RH) and “at least 2 years” in series [4] (measured by accelerated conditions of 40° C., 75% RH (6 months taken as equivalent to 2 years at 25° C., 60% RH)). The Assay in series [4] (25° C., 60% RH, 0 months) is listed as 98.6 % (w/w); in series [4] (25° C., 60% RH, 3 months), 98.5 % (w/w); in series [4] (25° C., 60% RH, 6 months), 99.2 % (w/w); in series [4] (25° C., 60% RH, 9 months), 99.0 % (w/w); in series [4] (25° C., 60% RH, 12 months), 99.2 % (w/w); in series [4] (25° C., 60% RH, 18 months), 99.1 % (w/w). Besides, the Assay in series [4] (40° C., 75% RH (accelerated), 0 months) is listed as 98.6 % (w/w); in series [4] (40° C., 75% RH (accelerated), 1 month), 98.5 % (w/w); in series [4] (40° C., 75% RH (accelerated), 3 months), 98.6 % (w/w); in series [4] (40° C., 75% RH (accelerated), 6 months) it was 99.0 % (w/w). Moreover, the “Water Content” value is recorded as “<LOQ” in series [4] (25° C., 60% RH, 0 months, LOQ = 0.2%); “<LOQ” in series [4] (25° C., 60% RH, 6 months, LOQ = 0.19%); “<LOQ” in series [4] (25° C., 60% RH, 12 months, LOQ = 0.19%); “<LOQ” in series [4] (40° C., 75% RH (accelerated), 0 months, LOQ = 0.2%); “<LOQ” in series [4] (40° C., 75% RH (accelerated), 3 months, LOQ = 0.22%); “<LOQ” in series [4] (40° C., 75% RH (accelerated), 6 months, LOQ = 0.19%). In addition, the water detected result in series [4] (at 12-months) is on record as “no quantifiable amount of water is detected”. Further, the “renal elimination (of total administered dose)” value in series [5] is “less than 1%”. Further, in series [6], the “target engagement (plasma cGMP) on Day 14” value is listed as “target engagement of all doses at trough (0 h) as well as all doses measured up to 24 h”.
